Experimental data taken from BindingDB's records for doi:10.1016/j.ejmech.2019.111726 (Jinan University, 2019).

Tests used:
[1] = Reversal of P-gp mediated multidrug resistance in human MCF7/ADM cells assessed as doxorubicin IC50 at 5 uM measured within 48 hrs by MTT assay (Rvb = 151.7 +/- 5 uM)
[2] = Reversal of P-gp mediated multidrug resistance in human MCF7/ADM cells assessed as doxorubicin IC50 at 10 uM measured within 48 hrs by MTT assay (Rvb = 151.7 +/- 5 uM)
[3] = Reversal of P-gp mediated multidrug resistance in human HepG2/DOX cells assessed as doxorubicin IC50 at 5 uM measured within 48 hrs by MTT assay (Rvb = 69.3 +/- 3.9 uM)
[4] = Reversal of P-gp mediated multidrug resistance in human HepG2/DOX cells assessed as doxorubicin IC50 at 10 uM measured within 48 hrs by MTT assay (Rvb = 69.3 +/- 3.9 uM)

IC50 [1]: 14.6 µM | IC50 [2]: 1.2 µM | IC50 [3]: 1.4 µM | IC50 [4]: 0.3 µM
SMILES: CCCN(C(=O)CCCCCCC(=O)N(CCC)[C@H]1CC2=CC(=O)O[C@]23C[C@H]1N1CCCC[C@H]13)[C@H]1CC2=CC(=O)O[C@]23C[C@H]1N1CCCC[C@H]13
